Reference: patent US20200377568A1, “Novel IL-4-/IL-13-derived peptide compounds for the treatment or prevention of neurodegenerative or neuroinflammatory diseases” (Universitätsmedizin der Johannes Gutenberg-Universität Mainz, priority 2018, published 2020)
Entries after “also recorded” stand apart in the source; their conditions may differ.

Key:
[1] = tested on: experimental autoimmune encephalomyelitis (EAE) mice; experiment: EAE clinical score, treatment during the chronic phase; type: in vivo, mouse; settings: chronic phase of EAE, vs PBS
Protocol: To test whether Link4 has similar effects to IL-4 in vivo, two pilot experiments were performed. In the first experiment (FIG. 3A), B16 mice were subjected to EAE and treated with IL-4, Link4, Ph8 and PBS (n=6-7 animals per group) via lumbar intrathecal injection directly into the cerebrospinal fluid (CSF) every other day for 14 days, in the chronic phase of the disease starting from day 5 after the first disease peak (grey bar). […] For better clinical translation, the treatment was then switched to nasal treatment with IL-4 and Link4 (FIG. 3B; 2 pooled experiments, n=15-16 per group). Nasally applied treatments can enter the brain through the cribriform plate, where olfactory nerve fibers cross through the bone, resulting in a connection between the roof of the nasal cavity and the brain (C. F. Xiao, F. J. Davis, B. C. Chauhan, K. L. Viola, P. N. Lacor, P. T. Velasco, W. L. Klein, and N. B. Chauhan, Brain transit and ameliorative effects of intranasally delivered anti-amyloid-beta oligomer antibody in 5XFAD mice. J Alzheimers Dis 35, 777-788 (2013)). Again, both IL-4 and Link4 treatments were beneficial.
For active EAE, female 9-10-weeks-old C57BI6 mice were immunized as previously described (M. Paterka, J. O. Voss, J. Werr, E. Reuter, S. Franck, T. Leuenberger, J. Herz, H. Radbruch, T. Bopp, V. Siffrin, and F. Zipp, Dendritic cells tip the balance towards induction of regulatory T cells upon priming in experimental autoimmune encephalomyelitis. J Autoimmun 67, 108-114 (2017)) by subcutaneous injection of 200 μg myelin oligodendrocyte […] 35-55 (MOG35-55) mixed with complete Freund adjuvant (CFA). Following the MOG35-55 immunization 400 ng pertussis toxin (PTX) was administered intraperitoneally at the day of immunizaton and after 24 h. Clinical signs were scored using the following parameters:
Treatment with rIL-4 (1 μg, Peprotech), Ph8 (1 μg, custom synthesized, Schafer N), Link4 (1 μg, custom synthesized, Schafer N) or vehicle (PBS) was performed during the chronic phase of the disease models by lumbar intrathecal injection (R. Lu and A. Schmidtko, Direct intrathecal drug delivery in mice for detecting in vivo effects of cGMP on pain processing. Methods Mol Biol 1020, 215-221 (2013)) or nasal application of IL-4 and Link4 was performed according to published procedures (C. F. Xiao, F. J. Davis, B. C. Chauhan, K. L. Viola, P. N. Lacor, P. T. Velasco, W. L. Klein, and N. B. Chauhan, Brain transit and ameliorative effects of intranasally delivered anti-amyloid-beta oligomer antibody in SXFAD mice. J Alzheimers Dis 35, 777-788 (2013)). Mice were pre-trained to avoid stress and held at a 45 degree angle to apply IL-4 solution (1 μg, Peprotech) to the nostrils using a pipette tip.

[2] = tested on: CD11b+ bone marrow-derived macrophages (BMDMs); experiment: Differentiation of bone marrow-derived macrophages; type: cell-based, mouse; settings: different concentrations, FIG. 4A
Protocol: A-B: Effects of incubation with IL-4 and different concentrations of Link4 and Link13 on the differentiation of A: CD11b^+ bone marrow-derived macrophages (BMDMs) into F80^+CD206^+ cells, and B: CD4^+ T cells into Gata3^+ cells. C-D: FACS results for different populations of T cells and CD11b^+MHCII^+ monocytes/macrophages/microglia of immune cells isolated from C: spleen and D: central nervous system (CNS) of EAE mice treated with PBS, IL-4 or Link4.
In order to investigate whether Link4 and Link13 are able to modulate immune cells, in vitro assays were performed on bone marrow-derived macrophages (BDMBs) and on naïve T cells.
Murine BMDMs were isolated from adult C57BL/6 mice. The tibia and femur bones were flushed with sterile PBS and the bone marrow was collected in washing medium. After filtering the cell suspension trough a 100 μm nylon mesh, the cells were centrifuged (5 min, 550 g, 4° C.) and resuspended in mouse medium (10% FCS, 1% P/S, 1% L-glutamine, 0.1% β-mercaptoethanol, 1% HEPES in RPMI buffer). For the in vitro generation of BMDMs cells were plated in 6 well-plates and exposed to 20 ng/ml Macrophage […] (M-CSF) for 4 days. For the activation of the cells, Dexametason (5×10^−7M), LPS (10 μg/ml) and IL-4 (10 ng/ml) were added to the culture for the following 3 days.

“RARSEIIGIGSKSIMQMDY (listed as Mus musculus) [Link4]” was tested, and the clinical score ([1]; lumbar intrathecal injection, 1 μg every other day for 14 days) was “significant improvement in the clinical score; also recorded: significant amelioration of the clinical score”, the clinical score ([1]; lumbar intrathecal injection, 1 μg every other day for 14 days, listed as mouse Link4) was “reducing disease symptoms” and the clinical score ([1]; nasal application) was “significant improvement in the clinical score; also recorded: beneficial”. The “differentiation of CD11b+ BMDMs into F80+CD206+ cells” value [2] was “did not occur”.
